These results are taken from ChEMBL document CHEMBL1137075, “General model for estimation of the inhibition of protein kinases using Monte Carlo simulations” (J Med Chem, 2004).

Broadly, the IC50 is the concentration needed to halve the response being measured. Lower therefore signals higher potency.

For one assay, the target named is Tyrosine-protein kinase Lck (Homo sapiens, UniProt P06239).
Sequence of Tyrosine-protein kinase Lck (P06239 whole entry): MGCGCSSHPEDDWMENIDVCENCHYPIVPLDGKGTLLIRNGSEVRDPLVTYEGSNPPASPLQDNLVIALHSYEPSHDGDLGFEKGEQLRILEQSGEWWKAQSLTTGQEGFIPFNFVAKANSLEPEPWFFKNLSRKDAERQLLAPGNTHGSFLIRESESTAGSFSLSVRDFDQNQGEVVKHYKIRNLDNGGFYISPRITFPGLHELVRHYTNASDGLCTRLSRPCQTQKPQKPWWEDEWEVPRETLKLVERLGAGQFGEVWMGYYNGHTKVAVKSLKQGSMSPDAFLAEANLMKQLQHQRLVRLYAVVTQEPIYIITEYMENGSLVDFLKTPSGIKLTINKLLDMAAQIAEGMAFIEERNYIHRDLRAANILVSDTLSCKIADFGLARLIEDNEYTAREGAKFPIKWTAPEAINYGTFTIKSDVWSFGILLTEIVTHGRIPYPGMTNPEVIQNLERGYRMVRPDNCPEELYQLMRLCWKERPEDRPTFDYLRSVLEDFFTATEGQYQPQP
Description: Evaluated for inhibition of human p56 Lck tyrosine kinase
Compound `COc1cc2nc(Nc3c(C)cccc3Cl)c3cnc(CO)n3c2cc1OC` showed an IC50 of 6.2 nM. The compound `c1ccc2c(c1)nc(C1CCCCC1)c1cncn12` registered an IC50 of 3170 nM.

`c1cncc(-c2nc3ccccc3n3cncc23)c1` displayed an IC50 of 820 nM. In turn, `c1ccc2c(c1)nc(C1CC1)c1cncn12` displayed an IC50 of 3170 nM. `CCCc1nc2ccccc2n2cncc12`: the IC50 stood at 2680 nM. `COc1cc2nc(Nc3c(C)cccc3Cl)c3cnc(C=O)n3c2cc1OC` showed an IC50 of 10 nM.

The target in another assay is Cyclin-dependent kinase 2 (Homo sapiens, UniProt P24941). The assay is described as follows: Evaluated for inhibition of human cyclin dependent kinase 2 (CDK2).
`Oc1[nH]c2ccc(Br)cc2c1/N=N/c1ccccc1`: the IC50 is 43 nM. This counts as double-digit nanomolar.

In the case of `COc1ccc2[nH]c(O)c(/N=N/c3ccccc3)c2c1`, half-maximal inhibition (IC50) required 60 nM. In the case of `Oc1[nH]c2ccccc2c1/N=N/c1ccccc1`, 46 nM corresponded to half-maximal inhibition (IC50).
